Reference: patent US20250122183A1 (Pfizer Inc., priority 2023, published 2025)

Tests used:
Assay type in all cases: biochemical
KAT8 Full length enzyme = KAT8 Full length enzyme (Homo sapiens (Human), UniProt Q9H7Z6); assay: KAT8 assay (SAMDI-MS acetylation of H3 1-21 peptide); conditions: Morrison equation fit; replicate number in parentheses; read-out: KAT8 Ki (nM) (replicate number)
[1] = biological target: KAT7+JADE1+EAF6+ING5 4 protein complex (Homo sapiens (Human), UniProt O95251); assay: KAT7 JADE1 assay (SAMDI-MS acetylation of H3 1-21 peptide); conditions: Morrison equation fit; replicate number in parentheses; read-out: KAT7 JADE1 Ki (nM) (replicate number)
[2] = biological target: KAT7+BRPF1+EAF6+ING5 4 protein complex (Homo sapiens (Human), UniProt O95251); assay: KAT7 BRPF1 assay (SAMDI-MS acetylation of H3 1-21 peptide); conditions: Morrison equation fit; replicate number in parentheses
KAT6A Full length enzyme = KAT6A Full length enzyme (Homo sapiens (Human), UniProt Q92794); assay: KAT6A assay (SAMDI-MS acetylation of H3 1-21 peptide); conditions: Morrison equation fit; replicate number in parentheses; read-out: KAT6A Ki (nM) (replicate number)
KAT6A Full length enzyme, sequence (Q92794 other isoform, or with tags, fused parts or gaps): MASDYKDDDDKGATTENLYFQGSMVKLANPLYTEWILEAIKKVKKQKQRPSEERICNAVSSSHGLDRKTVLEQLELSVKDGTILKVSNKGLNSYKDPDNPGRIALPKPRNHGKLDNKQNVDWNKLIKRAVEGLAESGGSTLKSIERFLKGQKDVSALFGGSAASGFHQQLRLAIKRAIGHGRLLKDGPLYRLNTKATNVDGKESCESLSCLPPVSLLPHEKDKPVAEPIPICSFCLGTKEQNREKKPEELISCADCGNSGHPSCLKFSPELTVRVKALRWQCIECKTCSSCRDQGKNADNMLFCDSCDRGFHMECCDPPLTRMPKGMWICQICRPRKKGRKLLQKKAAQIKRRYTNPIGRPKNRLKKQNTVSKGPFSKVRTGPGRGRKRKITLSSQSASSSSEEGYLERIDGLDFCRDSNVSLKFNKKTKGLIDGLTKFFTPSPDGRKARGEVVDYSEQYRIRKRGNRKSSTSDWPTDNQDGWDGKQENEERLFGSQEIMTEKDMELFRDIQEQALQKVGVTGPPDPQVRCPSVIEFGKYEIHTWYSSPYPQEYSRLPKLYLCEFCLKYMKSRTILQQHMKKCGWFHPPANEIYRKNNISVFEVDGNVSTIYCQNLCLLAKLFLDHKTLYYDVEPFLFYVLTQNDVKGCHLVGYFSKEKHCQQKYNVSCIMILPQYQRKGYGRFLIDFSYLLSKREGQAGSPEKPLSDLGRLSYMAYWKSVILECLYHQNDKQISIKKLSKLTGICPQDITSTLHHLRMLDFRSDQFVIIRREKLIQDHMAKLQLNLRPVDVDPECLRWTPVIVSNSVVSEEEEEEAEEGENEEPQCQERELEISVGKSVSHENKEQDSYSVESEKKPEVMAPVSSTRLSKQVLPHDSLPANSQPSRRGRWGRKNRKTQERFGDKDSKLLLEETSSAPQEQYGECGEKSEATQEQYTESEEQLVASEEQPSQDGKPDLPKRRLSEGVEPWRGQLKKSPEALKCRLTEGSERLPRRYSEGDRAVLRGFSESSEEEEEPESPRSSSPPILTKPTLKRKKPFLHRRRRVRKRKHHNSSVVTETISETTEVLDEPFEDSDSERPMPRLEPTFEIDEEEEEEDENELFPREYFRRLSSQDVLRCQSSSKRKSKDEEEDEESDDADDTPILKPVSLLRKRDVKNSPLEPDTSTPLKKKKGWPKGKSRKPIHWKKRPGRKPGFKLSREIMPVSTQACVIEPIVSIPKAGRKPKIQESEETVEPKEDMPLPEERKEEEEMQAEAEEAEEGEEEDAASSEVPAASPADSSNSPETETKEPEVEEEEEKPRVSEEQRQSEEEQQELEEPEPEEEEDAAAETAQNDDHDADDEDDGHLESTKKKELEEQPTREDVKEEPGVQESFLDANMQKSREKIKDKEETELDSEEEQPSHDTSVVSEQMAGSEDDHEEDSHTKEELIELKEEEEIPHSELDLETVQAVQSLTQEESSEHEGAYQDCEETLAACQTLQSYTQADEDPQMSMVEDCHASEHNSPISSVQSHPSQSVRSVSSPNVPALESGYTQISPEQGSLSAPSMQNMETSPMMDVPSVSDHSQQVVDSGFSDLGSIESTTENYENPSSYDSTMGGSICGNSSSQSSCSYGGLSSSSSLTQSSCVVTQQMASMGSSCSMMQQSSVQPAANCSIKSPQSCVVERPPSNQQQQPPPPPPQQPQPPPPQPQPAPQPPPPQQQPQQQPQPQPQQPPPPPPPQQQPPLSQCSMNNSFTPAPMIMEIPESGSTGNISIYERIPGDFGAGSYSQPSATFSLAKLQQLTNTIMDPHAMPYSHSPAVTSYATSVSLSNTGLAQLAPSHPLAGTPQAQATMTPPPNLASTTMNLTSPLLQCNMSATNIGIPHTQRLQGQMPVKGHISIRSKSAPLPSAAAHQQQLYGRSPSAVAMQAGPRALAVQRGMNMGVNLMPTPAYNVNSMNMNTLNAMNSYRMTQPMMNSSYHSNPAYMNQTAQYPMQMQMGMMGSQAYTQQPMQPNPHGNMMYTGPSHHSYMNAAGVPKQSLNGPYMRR

[3] = biological target: KAT7+BRPF2+EAF6+ING5 4 protein complex (Homo sapiens (Human), UniProt O95251); assay: KAT7 BRPF2 assay (SAMDI-MS acetylation of H3 1-21 peptide); conditions: Morrison equation fit; replicate number in parentheses; read-out: KAT7 BRPF2 Ki (nM) (replicate number)
KAT5 Full length enzyme = KAT5 Full length enzyme (Homo sapiens (Human), UniProt Q92993); assay: KAT5 assay (SAMDI-MS acetylation of H4 1-21 peptide); conditions: Morrison equation fit; replicate number in parentheses; read-out: KAT5 Ki (nM) (replicate number)
KAT5 Full length enzyme, sequence (Q92993 whole entry): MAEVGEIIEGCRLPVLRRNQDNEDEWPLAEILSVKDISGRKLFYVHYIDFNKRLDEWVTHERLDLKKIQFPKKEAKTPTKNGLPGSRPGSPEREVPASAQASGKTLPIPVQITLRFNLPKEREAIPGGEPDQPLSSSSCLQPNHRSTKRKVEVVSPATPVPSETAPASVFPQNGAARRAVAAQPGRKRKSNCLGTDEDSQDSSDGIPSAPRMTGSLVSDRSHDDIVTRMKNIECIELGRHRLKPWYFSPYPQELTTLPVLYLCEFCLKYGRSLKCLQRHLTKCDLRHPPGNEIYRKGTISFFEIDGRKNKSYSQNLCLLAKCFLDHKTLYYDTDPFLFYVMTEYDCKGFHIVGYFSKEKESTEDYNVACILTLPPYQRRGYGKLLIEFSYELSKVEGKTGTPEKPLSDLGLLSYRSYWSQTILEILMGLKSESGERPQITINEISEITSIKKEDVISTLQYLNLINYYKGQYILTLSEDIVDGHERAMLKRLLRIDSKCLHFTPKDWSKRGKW

KAT8 Full length enzyme, sequence (Q9H7Z6 whole entry): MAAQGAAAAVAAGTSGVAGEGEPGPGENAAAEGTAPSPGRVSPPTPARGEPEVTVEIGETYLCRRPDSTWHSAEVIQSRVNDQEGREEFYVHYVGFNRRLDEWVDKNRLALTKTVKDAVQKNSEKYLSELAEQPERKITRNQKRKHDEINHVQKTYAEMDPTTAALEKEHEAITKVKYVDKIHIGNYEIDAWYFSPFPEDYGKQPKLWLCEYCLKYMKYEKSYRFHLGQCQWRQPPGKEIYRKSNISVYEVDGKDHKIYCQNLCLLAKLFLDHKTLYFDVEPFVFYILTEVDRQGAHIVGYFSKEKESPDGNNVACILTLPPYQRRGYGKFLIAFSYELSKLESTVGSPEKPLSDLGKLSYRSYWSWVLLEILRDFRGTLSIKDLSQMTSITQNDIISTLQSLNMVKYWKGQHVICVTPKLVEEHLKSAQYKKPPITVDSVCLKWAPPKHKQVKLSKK

SMILES	Ki (KAT8 Full length enzyme) [nM]	Ki [1] [nM]	Ki [2] [nM]	Ki (KAT6A Full length enzyme) [nM]	Ki [3] [nM]	Ki (KAT5 Full length enzyme) [nM]
CCc1cc(Nc2cc3onc(NS(=O)(=O)c4c(OC)cccc4OC)c3cc2OC)[nH]n1 [Example 02, N-{6-[(3-ethyl-1H-pyrazol-5-yl)amino]-5-methoxy-1,2-benzoxazol-3-yl}-2,6-dimethoxybenzene-1-sulfonamide]	2270	19.5	3.5	1.1	4.8	305
COc1cc2c(NS(=O)(=O)c3c(OC)cccc3OC)noc2cc1Nc1cc[nH]n1 [Example 03, 2,6-Dimethoxy-N-{5-methoxy-6-[(1H-pyrazol-3-yl)amino]-1,2-benzoxazol-3-yl}benzene-1-sulfonamide]	861	105	40.6	0.5	43.6	138
COc1cc2c(NS(=O)(=O)c3c(OC)cccc3OC)noc2cc1Nc1ccn(C)n1 [Example 04, 2,6-Dimethoxy-N-{5-methoxy-6-[(1-methyl-1H-pyrazol-3-yl)amino]-1,2-benzoxazol-3-yl}benzene-1-sulfonamide]	1230	251	67.2	0.7	57.2	367
COc1cc2c(NS(=O)(=O)c3ccccc3OC)noc2cc1Nc1cc(C)n[nH]1 [Example 06, 2-Methoxy-N-{5-methoxy-6-[(3-methyl-1H-pyrazol-5-yl)amino]-1,2-benzoxazol-3-yl}benzene-1-sulfonamide]	> 13000	148	47.1	0.8	50.5	300
COc1ccccc1S(=O)(=O)Nc1noc2cc(Nc3cc[nH]n3)cc(OC)c12 [Example 09, 2-methoxy-N-{4-methoxy-6-[(1H-pyrazol-3-yl)amino]-1,2-benzoxazol-3-yl}benzene-1-sulfonamide]	1190	202	51.8	0.8	90.7	642
COc1cccc(OC)c1S(=O)(=O)Nc1noc2cc(Nc3ncc[nH]3)cc(OC)c12 [Example 15, N-{6-[(1H-imidazol-2-yl)amino]-4-methoxy-1,2-benzoxazol-3-yl}-2,6-dimethoxybenzene-1-sulfonamide]	1320	256	67.8	1.2	100	1330
COc1cc2c(NS(=O)(=O)c3ccccc3OC)noc2cc1Nc1cc[nH]n1 [Example 22, 2-methoxy-N-{5-methoxy-6-[(1H-pyrazol-3-yl)amino]-1,2-benzoxazol-3-yl}benzene-1-sulfonamide]	1700	300	108	0.9	186	488
COc1cc2c(NS(=O)(=O)c3ccc(C)cc3OC)noc2cc1Nc1cc[nH]n1 [Example 23, 2-methoxy-N-{5-methoxy-6-[(1H-pyrazol-3-yl)amino]-1,2-benzoxazol-3-yl}-4-methylbenzene-1-sulfonamide]	1060	212	36.7	0.9	95.2	418
COc1cc2c(NS(=O)(=O)c3cc(C)ccc3OC)noc2cc1Nc1cc[nH]n1 [Example 24, 2-methoxy-N-{5-methoxy-6-[(1H-pyrazol-3-yl)amino]-1,2-benzoxazol-3-yl}-5-methylbenzene-1-sulfonamide]	440	285	88.5	0.9	182	236
COc1cc2c(NS(=O)(=O)c3cc(C(C)C)c(C)cc3OC)noc2cc1Nc1cc[nH]n1 [Example 26, 2-methoxy-N-{5-methoxy-6-[(1H-pyrazol-3-yl)amino]-1,2-benzoxazol-3-yl}-4-methyl-5-(propan-2-yl)benzene-1-sulfonamide]	154	206	14.7	0.6	71.5	189
COc1cc2c(NS(=O)(=O)c3ccc(Cl)cc3OC)noc2cc1Nc1cc[nH]n1 [Example 27, 4-chloro-2-methoxy-N-{5-methoxy-6-[(1H-pyrazol-3-yl)amino]-1,2-benzoxazol-3-yl}benzene-1-sulfonamide]	893	220	74.7	1.3	124	390
CCOc1ccccc1S(=O)(=O)Nc1noc2cc(Nc3cc[nH]n3)c(OC)cc12 [Example 28, 2-ethoxy-N-{5-methoxy-6-[(1H-pyrazol-3-yl)amino]-1,2-benzoxazol-3-yl}benzene-1-sulfonamide]	3110	290	97.1	1.2	141	630
CCOc1cc(C)ccc1S(=O)(=O)Nc1noc2cc(Nc3cc[nH]n3)c(OC)cc12 [Example 29, 2-ethoxy-N-{5-methoxy-6-[(1H-pyrazol-3-yl)amino]-1,2-benzoxazol-3-yl}-4-methylbenzene-1-sulfonamide]	1380	182	40.5	1	49.1	594
COc1cc2c(NS(=O)(=O)c3c(OC)cccc3OCC(F)F)noc2cc1Nc1cc[nH]n1 [Example 31, 2-(2,2-difluoroethoxy)-6-methoxy-N-{5-methoxy-6-[(1H-pyrazol-3-yl)amino]-1,2-benzoxazol-3-yl}benzene-1-sulfonamide]	781	325	79.9	0.8	104	977
COc1cc2c(NS(=O)(=O)c3c(OC)cccc3OC)noc2cc1Nc1ncn(C)n1 [Example 35, 2,6-dimethoxy-N-{5-methoxy-6-[(1-methyl-1H-1,2,4-triazol-3-yl)amino]-1,2-benzoxazol-3-yl}benzene-1-sulfonamide]	9110	527	48.3	3	156	1760
COc1cc2c(NS(=O)(=O)c3c(OC)cccc3OC)noc2cc1Nc1n[nH]c(C)n1 [Example 36, 2,6-dimethoxy-N-{5-methoxy-6-[(5-methyl-1H-1,2,4-triazol-3-yl)amino]-1,2-benzoxazol-3-yl}benzene-1-sulfonamide]	2990	501	93	1	106	1080
CCn1ccc(Nc2cc3onc(NS(=O)(=O)c4c(OC)cccc4OC)c3cc2OC)n1 [Example 39, N-{6-[(1-ethyl-1H-pyrazol-3-yl)amino]-5-methoxy-1,2-benzoxazol-3-yl}-2,6-dimethoxybenzene-1-sulfonamide]	> 32600	175	75.3	6.1	98.2	1750
CCc1nc(Nc2cc3onc(NS(=O)(=O)c4c(OC)cccc4OC)c3cc2OC)n[nH]1 [Example 40, N-{6-[(5-ethyl-1H-1,2,4-triazol-3-yl)amino]-5-methoxy-1,2-benzoxazol-3-yl}-2,6-dimethoxybenzene-1-sulfonamide]	> 16300	526	49.1	3.1	156	4600
